# From US11840686B2, “Modulation of prekallikrein (PKK) expression” (Ionis Pharmaceuticals, Inc., priority 2013, dated 2023)
# Strand notation (5' to 3'): a small letter for the sugar, then the base; units joined by * are phosphorothioate-linked, units joined directly phosphodiester-linked; [ ] holds rarer units or linkages, { } end groups; capitals alone tell only the bases. e = 2'-O-(2-methoxyethyl) (MOE); [5mC] = 5-methylcytosine; d = 2'-deoxy (DNA)
# Columns and labels:
# [1] = Liver function markers in cynomolgus monkeys (Example 8); conditions: cynomolgus monkey plasma, 40 mg/kg sc
# Experimental: (§1) Prior to the study, the monkeys were kept in quarantine for a 30-day period, during which the animals were observed daily for general health. The monkeys were 2-4 years old and weighed between 2 and 4 kg. Ten groups of four randomly assigned male cynomolgus monkeys each were injected subcutaneously with ISIS oligonucleotide or PBS. PBS solution or ISIS oligonucleotides at a dose of 40 mg/kg were administered initially with a loading regimen consisting of four doses on the first week of the study (days 1, 3, 5, and 7), followed by a maintenance regimen consisting of once weekly administration starting on Day 14 (weeks 2 to 13). Subcutaneous injections were performed in clock-wise rotations at 4 sites on the back; one site per dose. The injection sites were delineated by tattoo, while sedated using ketamine, and were separated by a minimum of 3 cm.
# To evaluate the effect of ISIS oligonucleotides on hepatic function, the monkeys were fasted overnight. Approximately, 1.5 mL of blood samples were collected from all the study groups. Blood was collected in tubes without anticoagulant for serum separation. The tubes were kept at room temperature for a minimum of 90 min and then centrifuged at 3,000 rpm for 10 min. Levels of various liver function markers were measured using a Toshiba 120FR NEO chemistry analyzer (Toshiba Co., Japan).
# [2] = C-reactive protein and complement C3 levels in cynomolgus monkeys (Example 8); conditions: cynomolgus monkey plasma, 40 mg/kg sc
# Experimental: as §1
# To evaluate any inflammatory effect of ISIS oligonucleotides in cynomolgus monkeys, the monkeys were fasted overnight. Approximately, 1.5 mL of blood samples were collected from all the study groups. Blood was collected in tubes without anticoagulant for serum separation. The tubes were kept at room temperature for a minimum of 90 min and then centrifuged at 3,000 rpm for 10 min. C-reactive protein (CRP), which is synthesized in the liver and which serves as a marker of inflammation, was measured using a Toshiba 120FR NEO chemistry analyzer (Toshiba Co., Japan). Complement C3 was also measured similarly, and the data is presented as a percentage of baseline values.
# [3] = test system: thrombus formation; experiment: Stenosis-induced inferior vena cava thrombosis model, thrombi weights (Example 22); assay type: in vivo, mouse; conditions: BALB/c mice; for Thrombi weight: 24 hrs after stenosis
# Experimental: Reduced blood flow and endothelial damage are hallmarks of this model, also known as the St. Tomas model.
# Four groups of 6-8 BALB/c mice were treated with 5 mg/kg, 10 mg/kg, 20 mg/kg, or 40 mg/kg of ISIS 482584, administered subcutaneously twice a week for 3 weeks (weekly doses of 10 mg/kg, 20 mg/kg, 40 mg/kg, or 80 mg/kg). A control group of 8 BALB/c mice was treated with PBS, administered subcutaneously twice a week for 3 weeks. Two days after the last dose of antisense oligonucleotide or PBS was administered, mice from all groups were anesthetized with 2.5% inhalant isoflurane. The IVC of the mice was exposed via a midline abdominal incision below the left renal vein, and was separated from the abdominal aorta by blunt dissection. A 6-0 silk tie (Ethicon, UK) was placed behind the blood vessel just below the left renal vein and a metal 4-0 suture (Ethicon, UK) was placed longitudinally over the IVC to tie the silk tie on top. The metal suture was then removed. Two neurovascular surgical clips (Braun Medical Inc, PA) were placed at two separate positions below the ligation for 20 seconds each, after which they were removed. The abdominal cavity contents were then replaced and the abdomen was closed. After 24 hrs, the IVC was exposed and checked for thrombi formation. All thrombi formed were collected and fixed in 10% formalin for 24 hrs.
# The thrombi were weighed and the results are presented in Table 85, expressed in milligrams.
# [4] = Tail bleeding assay (Example 20); assay type: in vivo, mouse; conditions: BALB/c mice; for Bleeding: blood collected over 40 minutes
# Experimental: Tail-bleeding was measured to observe whether treatment with ISIS 482584 causes excess bleeding or hemorrhage in mice.
# Groups of 10 male BALB/c mice were treated with 10 mg/kg, 20 mg/kg, or 40 mg/kg of ISIS 482584, administered subcutaneously twice a week for 3 weeks (weekly doses of 20 mg/kg, 40 mg/kg, or 80 mg/kg). A control group of 8 BALB/c mice was treated with PBS, administered subcutaneously twice a week for 3 weeks.
# Two days after the final treatment of ISIS oligonucleotides or PBS, mice were placed in a tail bleeding chamber. Mice were anesthetized in the chamber with isoflurane. Then, a small piece of tail (approximately 4 mm from the tip) was cut with sterile scissors. The cut tail was immediately placed in a 15 mL Falcon tube filled with approximately 10 mL of 0.9% NaCl buffer solution warmed to 37° C. The blood was collected over the course of 40 minutes. The saline filled tubes were weighed both before and after bleeding.
# [5] = test system: human PKK mRNA; experiment: Dose-dependent antisense inhibition of human PKK in HepaRG cells, 0.12-10.00 uM (Example 4); assay type: cell-based; conditions: electroporation, ~16 h
# Experimental: Cells were plated at a density of 20,000 cells per well and transfected using electroporation with 0.12 μM, 0.37 μM, 1.11 μM, 3.33 μM, and 10.00 μM concentrations of antisense oligonucleotide. After a treatment period of approximately 16 hours, RNA was isolated from the cells and PKK mRNA levels were measured by quantitative real-time PCR. Human PKK primer probe set RTS3454 was used to measure mRNA levels. PKK mRNA levels were adjusted according to total RNA content, as measured by RIBOGREEN®. The antisense oligonucleotides were tested in a series of experiments that had similar culture conditions. Results are presented as percent inhibition of PKK, relative to untreated control cells.
# The half maximal inhibitory concentration (IC50) of each oligonucleotide is also presented.
# [6] = test system: human PKK mRNA; experiment: Antisense inhibition of human PKK mRNA in HepaRG cells, 3,000 nM (Example 1); assay type: cell-based; conditions: Table 4; HepaRG cells, electroporation with 3,000 nM antisense oligonucleotide, approx. 24 hours; PKK mRNA by RT-PCR (RTS3454), relative to untreated control cells
# How it was run: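 HepaRG cells, 20,000 per well, were electroporated with 3,000 nM 5-10-5 MOE gapmer (phosphorothioate, 5-methylcytosine). After about 24 h, PKK mRNA was measured by qRT-PCR with primer probe set RTS3454 and normalised to RIBOGREEN total RNA. Values are percent inhibition versus untreated cells.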
substance,measurement,setting,value
Tes Ges mCes Aes Aes Gds Tds mCds Tds mCds Tds Tds Gds Gds mCds Aes Aes Aes mCes Ae [ISIS 546254],ALT,[1],54 IU/L
same,AST,[1],68 IU/L
same,Albumin,[1],3.8 g/dL
same,C3 (% of baseline),[2],61 % of baseline
same,CRP,[2],0.8 mg/dL
"ISIS 482584: 5-10-5 MOE gapmer targeting murine PKK, GGCATATTGGTTTTTGGAAT; SEQ ID NO: 2244 (antisense eG*eG*e[5mC]*eA*eT*dA*dT*dT*dG*dG*dT*dT*dT*dT*dT*eG*eG*eA*eA*eT)",Thrombi weight,[3]; 10 mg/kg/wk sc 3 weeks,8 mg
same,Thrombi weight,[3]; 20 mg/kg/wk sc 3 weeks,6 mg
same,Thrombi weight,[3]; 40 mg/kg/wk sc 3 weeks,5 mg
same,Thrombi weight,[3]; 80 mg/kg/wk sc 3 weeks,3 mg
same,thrombus weight,[3]; increasing doses 5-40 mg/kg s.c. twice a week for 3 weeks,corresponding decrease in thrombus weight
same,Bleeding,[4]; 20 mg/kg/wk sc 3 weeks,0.03 mL
same,Bleeding,[4]; 40 mg/kg/wk sc 3 weeks,0.14 mL
same,Bleeding,[4]; 80 mg/kg/wk sc 3 weeks,0.07 mL
same,tail bleeding,[4]; 10-40 mg/kg s.c. twice a week for 3 weeks,did not significantly affect bleeding
531231 (eT*eA*eT*e[5mC]*eA*d[5mC]*dT*dG*dT*dA*d[5mC]*dT*dA*dG*dT*eT*eT*e[5mC]*e[5mC]*eT) [compound 531231],percent inhibition of PKK at 0.12 μM,"[5]; Table 32, 0.12 μM",23%
same,percent inhibition of PKK at 0.37 μM,"[5]; Table 32, 0.37 μM",30%
same,percent inhibition of PKK at 1.11 μM,"[5]; Table 32, 1.11 μM",76%
same,percent inhibition of PKK at 3.33 μM,"[5]; Table 32, 3.33 μM",89%
same,percent inhibition of PKK at 10.00 μM,"[5]; Table 32, 10.00 μM",94%
same,IC50,"[5]; Table 32, PKK mRNA",600 nM
same,percent inhibition of PKK at 0.12 μM,"[5]; Table 33, 0.12 μM",18%
same,percent inhibition of PKK at 0.37 μM,"[5]; Table 33, 0.37 μM",0%
same,percent inhibition of PKK at 1.11 μM,"[5]; Table 33, 1.11 μM",36%
same,percent inhibition of PKK at 3.33 μM,"[5]; Table 33, 3.33 μM",76%
same,percent inhibition of PKK at 10.00 μM,"[5]; Table 33, 10.00 μM",84%
same,IC50,"[5]; Table 33, PKK mRNA",2000 nM
same,% inhibition,[6],94%
